ChEMBL document CHEMBL4732190, “Identification of Potent and Long-Acting Single-Chain Peptide Mimetics of Human Relaxin-2 for Cardiovascular Diseases” (J Med Chem, 2021)
Values after ≈ are worked out from the molar mass of the structure shown. *1 amine or outer side, *2 acyl side, *3 side chain or, on linkers, in order; H or OH if unused. Where a SMILES comes first, the peptide text is derived from it. [ ]: non-standard residue; d: D form. The star is where a group is joined. PEG11 = NCCOCCOCCOCCOCCOCCOCCOCCOCCOCCOCCOCCC(=O)O; X1 = CCCCCCCCCCCCCCCCC(=O)[C@H](CCC(N)=O)N*; β2hAla(2S) = C[C@@H](CN[*:1])C(=O)[*:2]; Nle = CCCC[C@H](N)C(=O)O

Key:
[1] = target: T1, Relaxin receptor 1 (Homo sapiens, UniProt Q9HBX9); assay: Agonist activity at RXFP1 endogenously expressed in human OVCAR-5 cells assessed as increase in IBMX-induced cAMP accumulation pretreated with IBMX for 40 mins followed by compound addition and measured after 30 mins by HTRF assay; type: functional, cell-based
T1 sequence (Q9HBX9 whole entry): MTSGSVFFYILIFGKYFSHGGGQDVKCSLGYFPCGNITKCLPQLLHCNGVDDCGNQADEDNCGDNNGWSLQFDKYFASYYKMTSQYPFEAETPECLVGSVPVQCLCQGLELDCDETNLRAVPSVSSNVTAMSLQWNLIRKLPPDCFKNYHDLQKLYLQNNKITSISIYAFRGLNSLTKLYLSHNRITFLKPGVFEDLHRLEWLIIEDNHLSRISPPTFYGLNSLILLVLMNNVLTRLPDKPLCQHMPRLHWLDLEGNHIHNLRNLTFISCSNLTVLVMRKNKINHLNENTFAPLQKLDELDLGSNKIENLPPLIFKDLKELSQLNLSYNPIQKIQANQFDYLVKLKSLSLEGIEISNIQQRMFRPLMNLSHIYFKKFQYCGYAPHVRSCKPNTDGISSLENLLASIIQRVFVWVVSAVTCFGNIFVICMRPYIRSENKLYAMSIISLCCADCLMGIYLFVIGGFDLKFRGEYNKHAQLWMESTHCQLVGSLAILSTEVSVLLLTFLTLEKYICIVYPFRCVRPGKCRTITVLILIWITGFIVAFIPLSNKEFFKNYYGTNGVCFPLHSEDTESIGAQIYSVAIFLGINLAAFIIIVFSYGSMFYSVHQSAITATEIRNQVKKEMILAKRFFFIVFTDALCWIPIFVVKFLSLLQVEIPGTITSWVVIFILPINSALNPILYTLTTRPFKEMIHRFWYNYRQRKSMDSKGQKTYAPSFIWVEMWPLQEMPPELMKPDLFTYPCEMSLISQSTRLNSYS

[2] = target: T2, Relaxin receptor 1 (Homo sapiens) (UniProt Q9HBX9); assay: Agonist activity at RXFP1 endogenously expressed in human OVCAR-5 cells assessed as increase in IBMX-induced cAMP accumulation pretreated with IBMX for 40 mins followed by compound addition and measured after 30 mins by HTRF assay relative to relaxin; type: functional, cell-based; conditions: filed as agonist
T2 sequence (whole entry): T1 sequence (Q9HBX9 whole entry)

[3] = target: T3, Relaxin receptor 1 (Rattus norvegicus, UniProt Q6R6I6); assay: Agonist activity at rat RXFP1 expressed in human […] cells assessed as increase in IBMX-induced cAMP accumulation pretreated with IBMX for 40 mins followed by compound addition and measured after 30 mins by HTRF assay; type: cell-based, HEK293
T3 sequence (Q6R6I6 whole entry): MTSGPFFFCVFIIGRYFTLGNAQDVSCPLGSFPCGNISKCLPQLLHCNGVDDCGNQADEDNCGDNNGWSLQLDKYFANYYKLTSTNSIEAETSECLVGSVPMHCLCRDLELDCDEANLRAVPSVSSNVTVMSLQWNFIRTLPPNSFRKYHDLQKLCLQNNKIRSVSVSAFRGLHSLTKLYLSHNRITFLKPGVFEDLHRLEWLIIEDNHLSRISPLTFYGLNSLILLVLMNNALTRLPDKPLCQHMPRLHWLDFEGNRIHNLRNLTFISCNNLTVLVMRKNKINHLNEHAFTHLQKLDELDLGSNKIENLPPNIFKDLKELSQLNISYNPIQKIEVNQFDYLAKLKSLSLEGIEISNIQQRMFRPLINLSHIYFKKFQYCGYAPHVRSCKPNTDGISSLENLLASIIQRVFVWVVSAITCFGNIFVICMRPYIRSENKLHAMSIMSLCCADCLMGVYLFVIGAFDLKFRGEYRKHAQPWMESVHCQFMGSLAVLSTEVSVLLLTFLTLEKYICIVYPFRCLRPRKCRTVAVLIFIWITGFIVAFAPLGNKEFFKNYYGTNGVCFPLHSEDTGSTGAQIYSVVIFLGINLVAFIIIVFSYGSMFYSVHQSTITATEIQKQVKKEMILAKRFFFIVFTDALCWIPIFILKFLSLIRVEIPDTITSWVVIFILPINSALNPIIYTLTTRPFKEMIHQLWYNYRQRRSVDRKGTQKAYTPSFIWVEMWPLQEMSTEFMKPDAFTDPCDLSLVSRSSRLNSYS

[4] = target: T4, Relaxin receptor 1 (Rattus norvegicus) (UniProt Q6R6I6); assay: Agonist activity at rat RXFP1 expressed in human […] cells assessed as increase in IBMX-induced cAMP accumulation pretreated with IBMX for 40 mins followed by compound addition and measured after 30 mins by HTRF assay relative to control; type: cell-based; conditions: HEK293, filed as agonist
T4 sequence (whole entry): T3 sequence (Q6R6I6 whole entry)

[5] = Half life in Sprague-Dawley rat at 1 mg/kg, iv measured upto 72 hrs by LC-HRMS analysis; type: ADME, organism-based; conditions: in vivo
[6] = target: T1, Relaxin receptor 1; assay: Agonist activity at RXFP1 endogenously expressed in human OVCAR-5 cells assessed as increase in IBMX-induced cAMP accumulation pretreated with IBMX for 40 mins followed by compound addition and measured after 30 mins in presence of 2 % HSA by HTRF assay; type: functional, cell-based
[7] = target: T2, Relaxin receptor 1 (Homo sapiens); assay: Agonist activity at RXFP1 endogenously expressed in human OVCAR-5 cells assessed as increase in IBMX-induced cAMP accumulation pretreated with IBMX for 40 mins followed by compound addition and measured after 30 mins in presence of 2 % HSA by HTRF assay relative to control; type: functional, cell-based; conditions: filed as agonist
[8] = target: T2, Relaxin receptor 1 (Homo sapiens); assay: Selectivity ratio of EC50 for agonist activity at RXFP1 endogenously expressed in human OVCAR-5 cells in presence of 2 % HSA to EC50 for agonist activity at RXFP1 endogenously expressed in human OVCAR-5 cells in absence of HSA; type: cell-based
[9] = target: T4, Relaxin receptor 1 (Rattus norvegicus); assay: Selectivity index, ratio of EC50 for agonist activity at rat RXFP1 expressed in human […] cells in presence of RSA by HTRF assay to EC50 for EC50 for agonist activity at rat RXFP1 expressed in human […] cells in absence of RSA by HTRF assay; type: cell-based; conditions: HEK293, time 30.0 min
[10] = Positive chronotropic activity in pithed Sprague-Dawley rat assessed as increase in heart rate at 20 to 1000 mg/kg, iv administered as bolus dose measured after 60 mins post dose; type: ADME, organism-based; conditions: in vivo, 1 h, dose 20-1000 mg/kg
[11] = Positive chronotropic activity in pithed Sprague-Dawley rat assessed as increase in heart rate at 1000 mg/kg, iv administered as bolus dose measured after 60 mins post dose; type: ADME, organism-based; conditions: in vivo, 1 h
[12] = Positive chronotropic activity in pithed Sprague-Dawley rat assessed as increase in heart rate at 10 microg/kg, iv administered as bolus dose recorded over 60 mins relative to control; type: ADME, organism-based; conditions: in vivo, 0.01 mg/kg, 1 h, dose 10 µg/kg
[13] = target: T1, Relaxin receptor 1; assay: Displacement of Eu3+-labelled H2 relaxin from human RXFP1 expressed in human HEK-293T cells in presence of 10 % FCS by competition binding assay; type: cell-based
[14] = target: T1, Relaxin receptor 1; assay: Agonist activity at human RXFP1 expressed in human HEK-293T cells co-transfected with pCRE beta-galactosidase reporter plasmid assessed as […] of IBMX-induced cAMP accumulation incubated for 30 mins by HTRF assay; type: functional, cell-based
[15] = Stability in human plasma assessed as parent compound remaining level at 5 uM remaining after 4 hrs; type: ADME, cell-free; conditions: read-out: Stabilty
[16] = Aqueous solubility of compound in acetate buffer at pH 4.5 measured after 24 hrs by UPLC analysis; type: physicochemical
[17] = Aqueous solubility of compound in phosphate buffer at pH 7.4 measured after 24 hrs by UPLC analysis; type: physicochemical
[18] = Stability in rat plasma assessed as parent compound remaining level at 5 uM remaining after 4 hrs; type: ADME, cell-free; conditions: read-out: Stabilty
[19] = Positive chronotropic activity in pithed Sprague-Dawley rat assessed as increase in heart rate at 300 microg/kg, iv administered as bolus dose recorded over 60 mins relative to control; type: ADME, organism-based; conditions: in vivo, 0.3 mg/kg, 1 h, dose 300 µg/kg

| Structure (SMILES) | EC50 [1] | Emax [2] | EC50 [3] | Emax [4] | half-life [5] | EC50 [6] | Emax [7] | Ratio EC50 [8] | Ratio EC50 [9] | Activity [10] | Emin [11] | Activity [12] | Ki [13] | EC50 [14] | remaining at 4 h, 5 µM [15] | solubility at 24 h [16] | solubility at 24 h [17] | remaining at 4 h, 5 µM [18] | Activity [19] |
| --- | --- | --- | --- | --- | --- | --- | --- | --- | --- | --- | --- | --- | --- | --- | --- | --- | --- | --- | --- |
| CCCCCCCCCCCCCCCCC(=O)[C@H](CCC(N)=O)NC(=O)[C@H](CCC(=O)O)NC(=O)[C@H](CCC(=O)O)NC(=O)[C@H](CCCCN)NC(=O)CCOCCOCCOCCOCCOCCOCCOCCOCCOCCOCCOCCNC(=O)[C@H](CCCCN)NC(=O)[C@H](CCCNC(=N)N)NC(=O)[C@@H](C)CNC(=O)[C@H](CO)NC(=O)[C@H](Cc1c[nH]c2ccccc12)NC(=O)[C@@H](NC(=O)[C@H](CO)NC(=O)[C@H](CCSC)NC(=O)CNC(=O)[C@H](CCC(=O)O)NC(=O)[C@@H](C)CNC(=O)[C@@H](C)CNC(=O)[C@@H](NC(=O)[C@H](CCC(N)=O)NC(=O)[C@H](C)NC(=O)[C@H](CCCNC(=N)N)NC(=O)[C@@H](NC(=O)[C@H](CCCCN)NC(=O)[C@H](CCC(=O)O)NC(=O)[C@H](CCCNC(=N)N)NC(=O)[C@H](CCC(=O)O)NC(=O)CNC(=O)[C@H](CCC(=O)O)NC(=O)[C@H](CC(C)C)NC(C)=O)C(C)C)[C@@H](C)CC)[C@@H](C)O (Ac-LEGEREKVRAQI[β2hAla(2S)][β2hAla(2S)]EGMSTWS[β2hAla(2S)]RK[PEG11]KEE-X1) | 3.6 nM | 88% | 0.9 nM | 79% | 534 min | 270 nM | 88% | 75 | 33 | Dose-dependent effect | 30% | – | – | – | – | – | – | – | – |
| CC[C@H](C)[C@@H]1NC(=O)[C@H](C)NC(=O)[C@H]([C@@H](C)CC)NC(=O)[C@H](CCC(N)=O)NC(=O)[C@H](C)NC(=O)[C@H](CCCNC(=N)N)NC(=O)[C@H](C(C)C)NC(=O)[C@H](CC(C)C)NC(=O)[C@H](CCC(=O)O)NC(=O)[C@H](CCCNC(=N)N)NC(=O)CNC(=O)[C@@H](NC(=O)[C@H](CC(C)C)NC(=O)[C@H](CCCCN)NC(=O)[C@@H](NC(=O)[C@@H](NC(=O)[C@H](CCC(=O)O)NC(=O)[C@H](CCC(=O)O)NC(=O)[C@H](CCSC)NC(=O)[C@H](Cc2c[nH]c3ccccc23)NC(=O)[C@H](CO)NC(=O)[C@@H](N)CC(=O)O)C(C)C)[C@@H](C)CC)CSSC[C@@H]2NC(=O)[C@@H](NC(=O)[C@H](CCCCN)NC(=O)[C@H](CC(N)=O)NC(=O)[C@H](C)NC(=O)[C@H](CC(C)C)NC(=O)[C@H](C)NC(=O)[C@H](CO)NC(=O)[C@H](Cc3ccc(O)cc3)NC(=O)[C@@H](N)CC(C)C)CSCCSC[C@H](NC(=O)CNC(=O)[C@H](C(C)C)NC(=O)[C@H](Cc3cnc[nH]3)NC2=O)C(=O)N[C@@H]([C@@H](C)O)C(=O)N[C@@H](CCCCN)C(=O)N[C@@H](CCCNC(=N)N)C(=O)N[C@@H](CO)C(=O)N[C@@H](CC(C)C)C(=O)N[C@@H](C)C(=O)N[C@@H](CCCNC(=N)N)C(=O)N[C@@H](Cc2ccccc2)C(=O)NC(C(=O)O)CSSC[C@@H](C(=O)NCC(=O)N[C@@H](CCSC)C(=O)N[C@@H](CO)C(=O)N[C@H](C(=O)N[C@@H](Cc2c[nH]c3ccccc23)C(=O)N[C@@H](CO)C(=O)O)[C@@H](C)O)NC1=O (stereo not given in full) | 0.42 nM | 100% | 0.5 nM | 100% | 27.6 min | – | – | – | – | – | – | 60% | 1.1 nM | 0.0324 nM | – | – | – | – | – |
| CCCC[C@H](NC(=O)CNC(=O)[C@H](CCC(=O)O)NC(=O)[C@@H](C)CNC(=O)[C@@H](C)CNC(=O)[C@@H](NC(=O)[C@H](CCC(N)=O)NC(=O)[C@H](C)NC(=O)[C@H](CCCNC(=N)N)NC(=O)[C@@H](NC(=O)[C@H](CCCCN)NC(=O)[C@H](CCC(=O)O)NC(=O)[C@H](CCCNC(=N)N)NC(=O)CNC(=O)[C@H](CCC(=O)O)NC(=O)[C@H](CC(C)C)NC(C)=O)C(C)C)[C@@H](C)CC)C(=O)N[C@@H](CO)C(=O)N[C@H](C(=O)N[C@@H](Cc1c[nH]c2ccccc12)C(=O)N[C@@H](CO)C(=O)NC[C@H](C)C(=O)N[C@@H](CCCNC(=N)N)C(=O)N[C@@H](CCCCN)C(=O)N[C@@H](CCCCN)C(N)=O)[C@@H](C)O (Ac-LEGREKVRAQI[β2hAla(2S)][β2hAla(2S)]EG[Nle]STWS[β2hAla(2S)]RKK-NH2) | 12 nM | 99% | 5.3 nM | 83% | 19.2 min | – | – | – | – | – | 43% | – | – | – | 64% | 3300 µg/mL (≈ 1190 µM) | 2900 µg/mL (≈ 1050 µM) | 55% | 40% |
